Data set [1] has as its target T1, CYP17 (human testicular microsome) (Homo sapiens, UniProt P05093).
T1 construct: using microsomal fraction from human testis (Celsis Cat #S00110) as the enzyme source; tissue Celsis S00110; host or cells: human testis microsomal fraction
T1 sequence (P05093 1-508): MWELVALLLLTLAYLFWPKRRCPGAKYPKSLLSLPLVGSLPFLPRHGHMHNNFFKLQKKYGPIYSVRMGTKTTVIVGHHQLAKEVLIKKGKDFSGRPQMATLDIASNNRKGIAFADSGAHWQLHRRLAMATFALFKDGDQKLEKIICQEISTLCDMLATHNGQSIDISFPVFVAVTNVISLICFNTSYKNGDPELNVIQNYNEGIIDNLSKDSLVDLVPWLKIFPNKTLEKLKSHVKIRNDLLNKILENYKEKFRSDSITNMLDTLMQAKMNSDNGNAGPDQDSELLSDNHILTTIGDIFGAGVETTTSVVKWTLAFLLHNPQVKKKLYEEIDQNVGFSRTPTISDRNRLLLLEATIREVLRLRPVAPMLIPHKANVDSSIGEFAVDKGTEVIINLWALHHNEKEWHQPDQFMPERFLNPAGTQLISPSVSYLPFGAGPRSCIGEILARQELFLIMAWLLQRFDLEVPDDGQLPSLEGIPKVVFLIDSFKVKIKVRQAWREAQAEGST
The experiment in a line: CYP17 enzymatic assay (% inhibition at 1 nM) (Biological Example 12). It counts as biochemical.

In data set [2] the target is T2, CYP17 (H295R cells) (Homo sapiens, UniProt P05093).
T2 construct: endogenous in cells; host or cells: H295R cells
T2 sequence (P05093 1-508): T1 sequence (P05093 1-508)
Description: CYP17 cellular assay (IC50), testosterone in H295R cells (Biological Example 7). The class given is cell-based. The following applies: H295R cells, testosterone; read-out: CYP17 cellular assay IC50 (Biological Example No. 7). Here is the method: The assays were performed in 96-well plates. Typically H295R cells were seeded at 4.5×10^4 cells/well in 100 μL Growth Medium containing DMEM/F-12 (Gibco/Invitrogen; 11330-032), 2.5% Nu-Serum (BD Bioscience; 355100) and ITS (BD Bioscience; 354352), and cultured at 37° C., 5% CO2 for 24 hr. The next day, media were carefully removed and cells were washed twice with 200 μL 1×HBSS++. Test compounds were then added to the cells at 100, 10, 1, 0.1 nM final concentrations in 125 μL volume per well in serum-free media containing DMEM/F-12 and ITS+ Premix (BD Bioscience; 354352) with 0.1% methanol. Serum-free media with 0.1% methanol without test compound was used as control. Cells were incubated with compounds at 37° C. for additional 24 hours, and the cultured media from each compound treated well was harvested for measurement of testosterone concentration by ELISA according to manufacturer's instruction (Assay Design). Testosterone concentration of each sample was plotted vs. the concentration of the test compounds.

Data set [3] has as its target T3, Cyp21 enzyme (Human HEK 293-Cyp21 stable transfected cells) (Homo sapiens, UniProt P08686).
T3 construct: expressed in transfected cells
T3 sequence (P08686 1-495): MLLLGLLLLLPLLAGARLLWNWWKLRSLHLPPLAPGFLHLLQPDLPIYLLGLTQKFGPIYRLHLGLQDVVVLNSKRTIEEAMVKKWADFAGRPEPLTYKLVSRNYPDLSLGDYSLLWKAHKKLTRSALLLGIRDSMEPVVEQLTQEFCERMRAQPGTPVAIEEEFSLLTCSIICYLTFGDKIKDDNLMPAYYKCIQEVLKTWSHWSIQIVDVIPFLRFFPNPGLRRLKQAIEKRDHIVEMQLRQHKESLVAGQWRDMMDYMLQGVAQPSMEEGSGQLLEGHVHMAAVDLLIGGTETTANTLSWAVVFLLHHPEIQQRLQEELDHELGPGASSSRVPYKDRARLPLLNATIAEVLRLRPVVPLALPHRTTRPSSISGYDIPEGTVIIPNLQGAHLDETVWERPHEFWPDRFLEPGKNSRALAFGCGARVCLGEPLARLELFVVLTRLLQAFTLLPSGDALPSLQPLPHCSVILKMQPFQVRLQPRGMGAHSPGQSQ
Description: CYP21-HEK293 enzymatic assay (IC50) (Biological Example 11). It counts as cell-based.

Data set [4] deals with T1, CYP17 (human testicular microsome). Description: CYP17 enzymatic assay (IC50) (Biological Example 4). The class given is biochemical.
The nature of data set [5]: Human liver microsome stability assay (Biological Example 8b). The following applies: liver microsomes, pH 7.4. (Liver microsomes are vesicles of endoplasmic reticulum, rich in cytochrome P450 enzymes.)
Description: The reaction was started with addition of excess NADPH (5 mg/mL, 15 μL in 0.1 M potassium phosphate buffer, 1.0 mM EDTA, pH 7.4), the total volume is 45 μL (compound final concentration was 1 μM). […] 50 μL of the supernatant was transferred from each well into a 96-well sample plate containing 50 μL of ultra-pure water (Millipore) for LC-MS/MS analysis.
In data set [6] the target is T1, CYP17 (human testicular microsome). Description: CYP17 enzymatic assay (% inhibition at 10 nM), version 1 (Biological Example 5). The class given is biochemical. The following applies: test compound at 10 nM, read-out: CYP17 enzymatic assay percent inhibition at 10 nM (Biological Example No. 5).
The mark [7] stands for this setting: compound at 1 nM, read-out: CYP17 enzymatic assay % inhibition at 1 nM (Biological Example No. 12).
Setting [8] is: HEK 293-Cyp21 cells, read-out: CYP21-HEK293 enzymatic assay IC50 (Biological Example No. 11).
Where [9] appears, read: human testicular microsome, read-out: CYP17 enzymatic assay IC50 (Biological Example No. 4).
[10] abbreviates: HEK 293-Cyp21 cells, read-out: Biological Example No. 11: CYP21-HEK293 enzymatic assay IC50.
[11] abbreviates: compound at 1 nM, read-out: Biological Example No. 12: CYP17 enzymatic assay % inhibition at 1 nM.
Setting [12] is: human testicular microsome, read-out: Biological Example No. 4: CYP17 enzymatic assay IC50.

Where two headings read alike, the source gives them in different places.

One may read the inhibition as the drop in the measured response relative to a control, in per cent. In general, IC50 refers to the point on the concentration scale where inhibition reaches its midpoint. `CN(C)CC(=O)O[C@H]1CC[C@@]2(C)C(=CC[C@H]3C4=CC=C(c5cccnc5)[C@@]4(C)CC[C@@H]32)C1` [195′, (3S,10R,13S)-10,13-dimethyl-17-(pyridin-3-yl)-2,3,4,7,8,9,10,11,12,13-decahydro-1H-cyclopenta[a]phenanthren-3-yl 2-(dimethylamino)acetate]: in data set [1] (setting [7]), the inhibition at 0.001 µM is greater than 50%. In addition, in data set [2], the half-inhibitory concentration (IC50) lay within 15 to 100 nM.

As a reminder, the half-life is the time needed for the level to fall by half in the phase considered. Take `C[C@]12CC[C@H]3[C@@H](C=CC4=CC(=O)CC[C@@]43C)C1=CC=C2c1cccnc1` [Compound 289, (10R,13S)-10,13-dimethyl-17-(pyridin-3-yl)-8,9,10,11,12,13-hexahydro-1H-cyclopenta[a]phenanthren-3(2H)-one]: the IC50 in data set [3] (setting [8]) was 10 to 100 nM; in data set [4] (setting [9]), less than 11 nM. Also, the inhibition at 0.001 µM in data set [1] (setting [7]) was greater than 50%. The same molecule returned a half-life at 1 μM in data set [5] of 1 to 50 min.

`C[C@]12CCC(=O)C(O)=C1C=C[C@@H]1[C@@H]2CC[C@]2(C)C(c3cccnc3)=CC[C@@H]12` [Compound 301, (10R,13S)-4-hydroxy-10,13-dimethyl-17-(pyridin-3-yl)-8,9,10,11,12,13,14,15-octahydro-1H-cyclopenta[a]phenanthren-3(2H)-one]: in data set [3] (setting [8]), the IC50 is greater than 1000 nM. The inhibition at 0.001 µM in data set [1] (setting [7]) is greater than 50%. In addition, in data set [5], the half-life at 1 μM fell in the range of 1 to 50 min.

For `CC1C[C@H]2C3=CC=C(c4cccnc4)[C@@]3(C)CC[C@@H]2[C@@]2(C)CCC(=O)C=C12` (stereo partly drawn) [Compound 315, (10R,13S)-6,10,13-trimethyl-17-(pyridin-3-yl)-6,7,8,9,10,11,12,13-octahydro-1H-cyclopenta[a]phenanthren-3(2H)-one], the IC50 in data set [3] (setting [10]) was less than 10 nM; in data set [4], less than 11 nM. Moreover, the inhibition at 0.001 µM in data set [1] (setting [11]) was greater than 50%. The molecule further returned a half-life at 1 μM in data set [5] of 1 to 50 min.

For `C[C@]12CCC(=O)C=C1C1CC1[C@@H]1[C@@H]2CC[C@]2(C)C(c3cccnc3)=CC[C@@H]12` (stereo partly drawn) [Compound 319, (4aR,6aS)-4a,6a-dimethyl-7-(pyridin-3-yl)-4,4a,4b,5,6,6a,9,9a,9b,9c,10,10a-dodecahydrocyclopenta[a]cyclopropa[l]phenanthren-2(3H)-one], the IC50 in data set [3] (setting [10]) is greater than 100 nM. In addition, in data set [1] (setting [11]), the inhibition at 0.001 µM is greater than 50%. Besides, the half-life at 1 μM in data set [5] fell in the range of 1 to 50 min.

For the molecule `C[C@]12CCC(=O)C=C1C(F)C[C@@H]1[C@@H]2CC[C@]2(C)C(c3cncc(F)c3)=CC[C@@H]12` (stereo partly drawn) [Compound 325, (10R,13S)-6-fluoro-17-(5-fluoropyridin-3-yl)-10,13-dimethyl-6,7,8,9,10,11,12,13,14,15-decahydro-1H-cyclopenta[a]phenanthren-3(2H)-one], the IC50 in data set [3] (setting [10]) is greater than 1000 nM; in data set [4] (setting [12]), less than 11 nM. The inhibition at 0.001 µM in data set [1] (setting [11]) is greater than 50%. In data set [5], the half-life at 1 μM is 1 to 50 min.

For the molecule `CC1C[C@H]2C3=CC=C(c4cccnc4)[C@@]3(C)CC[C@@H]2[C@@]2(C)C=CC(=O)C=C12` (stereo partly drawn) [Compound 349, (10R,13S)-6,10,13-trimethyl-17-(pyridin-3-yl)-6,7,8,9,10,11,12,13-octahydro-3H-cyclopenta[a]phenanthren-3-one], the IC50 in data set [3] (HEK 293-Cyp21 stable transfected cells, read-out: CYP21-HEK293 enzymatic assay IC50 (Biological Example No. 11)) was less than 10 nM. In data set [1] (test compound at 1 nM, read-out: CYP17 enzymatic assay percent inhibition at 1 nM (Biological Example No. 12)), the inhibition at 0.001 µM is greater than 50%. The inhibition at 0.01 µM in data set [6] was greater than 80%. In addition, the half-life at 1 μM in data set [5] was 1 to 50 min.

Consider `CC1CC2C(CC[C@]3(C)C(c4cccnc4)=CCC23)[C@@]2(C)CCC(=NO)C=C12` (stereo partly drawn) [Compound 361, (10R,13S)-6,10,13-trimethyl-17-(pyridin-3-yl)-6,7,8,9,10,11,12,13,14,15-decahydro-1H-cyclopenta[a]phenanthren-3(2H)-one oxime], for which, in data set [3] (setting [10]), the IC50 is greater than 100 nM. Also, the inhibition at 0.001 µM in data set [1] (setting [11]) lay in the range of 10 to 50%. In data set [5], the half-life at 1 μM was in the range of 1 to 50 min.

In the case of `C[C@]12CCNC(=O)C=C1C(F)CC1C2CC[C@]2(C)C(c3cccnc3)=CCC12` (stereo partly drawn) [Compound 370, (5aR,7aS)-12-fluoro-5a,7a-dimethyl-8-(pyridin-3-yl)-3,4,5,5a,5b,6,7,7a,10,10a,11,12-dodecahydrocyclopenta[5,6]naphtho[1,2-d]azepin-2(10bH)-one], the IC50 in data set [3] (setting [10]) is greater than 1000 nM; in data set [4] (setting [12]), less than 11 nM. The inhibition at 0.001 µM in data set [1] (setting [11]) was greater than 50%. Moreover, the half-life at 1 μM in data set [5] lay within 1 to 50 min.

Turning to `C[C@]12CCNC(=O)C=C1C1CC1[C@@H]1[C@@H]2CC[C@]2(C)C(c3cccnc3)=CC[C@@H]12` (stereo partly drawn) [Compound 382, (5aR,7aS)-5a,7a-dimethyl-8-(pyridin-3-yl)-3,4,5,5a,5b,6,7,7a,10,10a,10b,10c,11,11a-tetradecahydro-2H-cyclopenta[5,6]cyclopropa[3,4]naphtho[1,2-d]azepin-2-one], the half-maximal inhibitory concentration (IC50) in data set [3] (setting [10]) is greater than 100 nM; in data set [4] (setting [12]) it was less than 11 nM. Also, the inhibition at 0.001 µM in data set [1] (setting [11]) is greater than 50%. This molecule also showed a half-life at 1 μM in data set [5] of 1 to 50 min.

Consider `CC1CC2C3=CC=C(c4cncc(F)c4)[C@@]3(C)CCC2[C@@]2(C)CCNC(=O)C=C12` (stereo partly drawn) [Compound 389, (5aR,7aS)-8-(5-fluoropyridin-3-yl)-5a,7a,12-trimethyl-3,4,5,5a,5b,6,7,7a,11,12-decahydrocyclopenta[5,6]naphtho[1,2-d]azepin-2(10bH)-one], for which, in data set [3] (setting [10]), the half-maximal inhibitory concentration (IC50) was in the range of 10 to 100 nM. The inhibition at 0.001 µM in data set [1] (setting [11]) lay within 10 to 50%. In data set [5], this molecule returned a half-life at 1 μM of 1 to 50 min.

As for `C[C@]12CCC(=O)C=C1C=CC1C2CC[C@]2(C)C(c3cccnc3)=CCC12` (stereo partly drawn) [Compound 408, (10R,13S)-10,13-dimethyl-17-(pyridin-3-yl)-8,9,10,11,12,13,14,15-octahydro-1H-cyclopenta[a]phenanthren-3(2H)-one], the IC50 in data set [3] (setting [10]) is greater than 100 nM. Also, the inhibition at 0.001 µM in data set [1] (setting [11]) was greater than 50%. Further, the half-life at 1 μM in data set [5] lay within 1 to 50 min.

Take `C[C@]12CCC3C(CCC4=CC(=O)CC[C@@]43C)C1=CC=C2c1cncnc1` (stereo partly drawn) [Compound 471, (10R,13S)-10,13-dimethyl-17-(pyrimidin-5-yl)-6,7,8,9,10,11,12,13-octahydro-1H-cyclopenta[a]phenanthren-3(2H)-one]: the IC50 in data set [3] (setting [8]) is 10 to 100 nM; in data set [4] (setting [9]), less than 11 nM. In addition, the inhibition at 0.001 µM in data set [1] (setting [7]) is greater than 50%. In addition, the half-life at 1 μM in data set [5] was in the range of 1 to 50 min.

For the molecule `CCC1CC2C3=CC=C(c4cccnc4)[C@@]3(C)CCC2[C@@]2(C)CCC(=O)C=C12` (stereo partly drawn) [Compound 482, (10R,13S)-6-ethyl-10,13-dimethyl-17-(pyridin-3-yl)-6,7,8,9,10,11,12,13-octahydro-1H-cyclopenta[a]phenanthren-3(2H)-one], the IC50 in data set [3] (setting [10]) was 10 to 100 nM; in data set [4], less than 11 nM. In addition, in data set [1] (setting [11]), the inhibition at 0.001 µM was 10 to 50%. In data set [5], this molecule came in with a half-life at 1 μM of 1 to 50 min.

Source of the values: patent US20130252930A1 (BIOMARIN PHARMACEUTICAL INC., priority 2010, published 2013).
